Consider 21 molecules from patent publication US20100158829A1, “Method and Composition for Color Modulation” (Conopco, Inc., d/b/a UNILEVER, priority 2008, published 2010).

One assay has as its target D-dopachrome tautomerase (Homo sapiens, UniProt P30046). The experiment in a line: D-dopachrome tautomerase (DDT) enzyme assay with D-dopachrome substrate. In kind it is biochemical. As to conditions: for D-Dopachrome Tautomerase at 100 μM (% of control): test compound 100 μM, remaining activity, 100% = inactive; for IC50: DDT assays similar to those described in Example 2.

The test system of assay [1] is mushroom tyrosinase. The experiment in a line: Mushroom tyrosinase assay with L-dopa. In kind it is biochemical. As to conditions: for Mushroom Tyrosinase at 100 μM (% of control): test compound 100 μM, percent of untreated control reaction. The procedure: A stock solution of 10 mM L-dopa (3,4-Dihydroxyphenylalanine, Sigma Cat #D9628) was prepared in sodium phosphate buffer (100 mM, pH 7.0) along with a stock solution of 0.1 mg/mL (605 units/ml) mushroom tyrosinase (Sigma cat #T7755) in phosphate buffer and stored at […] 4° C. until use.
Test compounds (dissolved in DMSO) were first diluted in phosphate buffer to working concentrations of 1 mM. For each test, 150 μL of phosphate buffer, 10 μL of the L-dopa stock and 20 μL of each compound were added to each well of a 96 well clear bottom microtiter plate and mixed three times. 20 μL of mushroom tyrosinase stock solution was added, mixed and the absorbency read at 475 nm at 0, 2, 4, and 6.5 minutes. The points were plotted as absorbency vs. time and the slope of the line calculated. Values are expressed as the percent of the respective untreated control reaction. The final DMSO concentration in each sample was less than or equal to 1.0%

Assay [2] relates to mushroom tyrosinase. The experiment in a line: Mushroom tyrosinase assay with L-dopa. In kind it is biochemical. As to conditions: Tested at 1 μM.
In assay [3] the test system is Melanoderm tissue equivalent model MEL-300 containing melanocytes. The experiment in a line: Melanoderm tissue equivalent model, total melanin content. As to conditions: 10 μM in maintenance medium, 14 days. Format: cell-based. The procedure:
Melanoderm™ tissue equivalent model MEL-300 (MatTek: Ashland, Mass.) containing melanocytes obtained from dark skin individuals were cultured as per supplier instructions. Components were added to the maintenance medium phase (no topical treatments) at a final concentration of 10 μM for 14 days at which time the experiment was terminated and the tissues assessed for melanin content. Medium and treatments were changed three times per week. DMSO was utilized as the vehicle control and all treatments were performed in duplicate.
For quantification of total melanin, each Melanoderm was placed into an individual Eppendorf tube (2 mL) into which 250 μL of Solvable™ tissue solubilizer (Packard Bioscience Co., Cat#6NE9100) was added. Each tube was vortexed and incubated at 60° C. for 18 hours. After about […], each sample was centrifuged (5-minutes at 13,000 RPMs) to remove any particulates. One hundred μL of supernatant were transferred to a 96 well microtiter plate and the absorbance read at 490 nm. Total melanin content was calculated from a standard curve using synthetic melanin (Sigma Cat#M8631).
All the following components were tested at a final concentration of 10 μM: […]

D-dopachrome tautomerase, sequence (P30046 2-118 limits assumed): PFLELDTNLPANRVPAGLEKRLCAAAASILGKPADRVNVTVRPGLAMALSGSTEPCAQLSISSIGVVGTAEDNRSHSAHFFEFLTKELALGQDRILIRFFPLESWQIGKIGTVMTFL
Description for D-dopachrome tautomerase: A 125-mM sodium periodate working solution was prepared in H2O in an amber 5-mL vial (prepared fresh on the day of the assay). 4.3 mg of dihydroxy-D-phenylalanine (D-dopa) were weighed into a 20 mL scintillation vial equipped with a pierceable septa screw cap. With the use of a liquid transfer cannula, 12 mL of degassed buffer was first transferred into a 15 mL graduated conical tube and subsequently poured into the scintillation vial containing the D-dopa. The D-dopa was dissolved for ten (10) minutes while stirring under nitrogen. The resulting working solution was 1.8 mM. Once sodium periodate was added to the dissolved D-dopa, the resulting D-dopachrome was utilized immediately to prevent substrate degradation.
Concentrations were based on a final reaction volume of 200 μL. A total of 75 μL of buffer (100 mM potassium phosphate, pH 6.8) was added to each well of a clear flat bottom 96-well microtiter plate. To the blank control wells (no DDT), 25 μL of 10% glycerol/assay buffer was added. DMSO (5 μL) was added to blank wells and to the enzyme control wells (DDT alone with no inhibitors). […] To the remaining wells, 5 μL of test compounds diluted in DMSO was added for a final concentration of 100 μM. Lastly, 25 μL of DDT in assay buffer was added to all wells except for the substrate control wells. The concentration of DDT utilized was such that it produced a ΔOD475 of approximately 1.0 at the 40-second read time point between the blank and total.
With the use of a 1 mL syringe, 0.33 ml of the 125 mM sodium periodate working solution was added to the dissolved D-dopa and stirred for 30 seconds. The resulting D-dopachrome was transferred to a reagent reservoir and 100 μL immediately added to the first row of interest in the assay plate (resulting final substrate concentration in the assay is 0.9 mM). The plate was shaken for 2 seconds on a Spectromax plate reader and the decrease in absorbance measured over 40 seconds. 100 μL of D-dopachrome was added to the next row of interest in the assay plate and this procedure was repeated until four (4) rows were assayed and read. Often approximately 6-7 minutes, the remaining substrate was discarded.
Percent inhibition was calculated utilizing the OD values at the 40-second time point according to the following formula:
• A=percent inhibition of the unknown; • B=average percent inhibition for the 4 positive control values (within 4 distinct assay rows) generated with a single batch of substrate also used to assay the unknown of interest; • C=percent inhibition for the positive control for the assay row of interest which contains the unknown compound of interest.

`CCc1ccc(O)cc1O` [4-Ethyl Resorcinol, reference compound]: on D-dopachrome tautomerase, the “activity in the DDT assay (in words)” value was “inactive” and the “D-Dopachrome Tautomerase at 100 μM (% of control)” value is 100% of control. Besides, in the assay on mushroom tyrosinase [1], the “inhibition of mushroom tyrosinase (in words)” value was “potent inhibitor”. Further, the “Mushroom Tyrosinase (% of control)” value in the assay with mushroom tyrosinase [2] was 42.3% of control.
Consider `Oc1nc2cc(I)c(I)cc2o1` [5,6-diiodobenzo[d]oxazol-2-ol], for which the “D-Dopachrome Tautomerase at 100 μM (% of control)” value on D-dopachrome tautomerase is given as 56.1% of control. In the assay on mushroom tyrosinase [1], the “Mushroom Tyrosinase at 100 μM (% of control)” value was 99.3% of control.
Take `CCOC(=O)c1c(NC(=O)/C=C/C(=O)O)sc2c1CCC(C(C)(C)CC)C2` (stereo not drawn) [(E)-3-(3-(ethoxycarbonyl)-6-tert-pentyl-4,5,6,7-tetrahydrobenzo[b]thiophen-2-ylcarbamoyl)acrylic acid]: the “D-Dopachrome Tautomerase at 100 μM (% of control)” value at D-dopachrome tautomerase is 14.9% of control. Besides, the “Mushroom Tyrosinase at 100 μM (% of control)” value in the assay with mushroom tyrosinase [1] is on record as 90.8% of control.
For `CCc1ccc(NC(=O)/C=C/C(=O)O)cc1` [(E)-3-(4-ethylphenylcarbamoyl)acrylic acid], in that order: 40.5% of control and 89.4% of control.
As to `CC(C)(C)C1CCc2c(sc(NC(=O)/C=C/C(=O)O)c2C#N)C1` (stereo not drawn) [(E)-3-(6-tert-butyl-3-cyano-4,5,6,7-tetrahydrobenzo[b]thiophen-2-ylcarbamoyl)acrylic acid], at D-dopachrome tautomerase, the “D-Dopachrome Tautomerase at 100 μM (% of control)” value is 8.4% of control. Further, in the assay with mushroom tyrosinase [1], the “Mushroom Tyrosinase at 100 μM (% of control)” value is 88.2% of control.
One may read the IC50 as the point on the concentration scale where inhibition reaches its midpoint. High values mean weaker potency, low ones greater potency. On to `O=c1c(-c2cc(O)c(O)c(O)c2)coc2cc(O)c(O)c(O)c12` [Irigenol, 5,6,7-trihydroxy-3-(3,4,5-trihydroxyphenyl)-4H-1-benzopyran-4-one], for which, in assay [3], the “Reduction in Melanin” value was determined as 7.0%. The half-inhibitory concentration (IC50) against D-dopachrome tautomerase is 37.4 µM.
In the case of `O=C1C=CC(=O)c2c(O)cccc21` [Juglone, 5-hydroxy-1,4-naphthalenedione], in assay [3], the “Reduction in Melanin” value was 32.8%. At D-dopachrome tautomerase, half-maximal inhibition (IC50) required 14.9 µM.
For `O=c1c(O)c(-c2ccc(O)cc2O)oc2cc(O)cc(O)c12` [Morin, 2-(2,4-dihydroxyphenyl)-3,5,7-4H-1-benzopyran-4-one], in that order: 7.2% and 27.4 µM.
On to `CC(C)CC(C(=O)NC1CCCC1)N(C(=O)c1snc(C(N)=O)c1N)c1cccc(F)c1` (stereo not drawn) [N5-(1-(cyclopentylcarbamoyl)-3-methylbutyl)-4-amino-N5-(3-fluorophenyl)isothiazole-3,5-dicarboxamide], for which the “D-Dopachrome Tautomerase at 100 μM (% of control)” value at D-dopachrome tautomerase is 64.9% of control. Also, the “Mushroom Tyrosinase at 100 μM (% of control)” value in the assay on mushroom tyrosinase [1] was 105.2% of control.
Consider `CC(C)CC(C(=O)NC1CCCC1)N(C(=O)c1snc(C(N)=O)c1N)c1ccc(F)cc1` (stereo not drawn) [N5-(1-(cyclopentylcarbamoyl)-3-methylbutyl)-4-amino-N5-(4-fluorophenyl)isothiazole-3,5-dicarboxamide], for which the “D-Dopachrome Tautomerase at 100 μM (% of control)” value at D-dopachrome tautomerase is given as 65.7% of control. In the assay on mushroom tyrosinase [1], the “Mushroom Tyrosinase at 100 μM (% of control)” value is on record as 100.6% of control.
As to `CC(C)CC(C(=O)NC1CCCC1)N(C(=O)c1snc(C(N)=O)c1N)c1ccccc1` (stereo not drawn) [N5-(1-(cyclopentylcarbamoyl)-3-methylbutyl)-4-amino-N5-phenylisothiazole-3,5-dicarboxamide], the “D-Dopachrome Tautomerase at 100 μM (% of control)” value at D-dopachrome tautomerase is listed as 69.2% of control. In the assay on mushroom tyrosinase [1], the “Mushroom Tyrosinase at 100 μM (% of control)” value was 89.4% of control.
Turning to `NC(=O)c1nsc(C(=O)N(c2ccccc2)C(C(=O)NC2CCCC2)c2cccs2)c1N` (stereo not drawn) [N5-((cyclopentylcarbamoyl)(thiophen-2-yl)methyl)-4-amino-N5-phenylisothiazole-3,5-dicarboxamide], the “D-Dopachrome Tautomerase at 100 μM (% of control)” value at D-dopachrome tautomerase is on record as 66.8% of control. Further, the “Mushroom Tyrosinase at 100 μM (% of control)” value with mushroom tyrosinase [1] is on record as 101.8% of control.
For `CC(C)(C)NC(=O)C(c1c[nH]c2ccccc12)N(C(=O)c1snc(C(N)=O)c1N)c1ccccc1` (stereo not drawn) [N5-((tert-butylcarbamoyl)(1H-indol-3-yl)methyl)-4-amino-N5-phenylisothiazole-3,5-dicarboxamide], in that order: 40.9% of control and 96.0% of control.
With `CC(C)(C)NC(=O)C(c1ccc(F)cc1)N(C(=O)c1snc(C(N)=O)c1N)c1cccc(F)c1` (stereo not drawn) [N5-((tert-butylcarbamoyl)(4-fluorophenyl)methyl)-4-amino-N5-(3-fluorophenyl)isothiazole-3,5-dicarboxamide], the “D-Dopachrome Tautomerase at 100 μM (% of control)” value at D-dopachrome tautomerase is recorded as 48.0% of control. In the assay with mushroom tyrosinase [1], the “Mushroom Tyrosinase at 100 μM (% of control)” value is recorded as 106.1% of control.
For the molecule `CC(C)(C)NC(=O)C(c1ccc(F)cc1)N(Cc1ccccc1)C(=O)c1snc(C(N)=O)c1N` (stereo not drawn) [N5-((tert-butylcarbamoyl)(4-fluorophenyl)methyl)-4-amino-N5-benzylisothiazole-3,5-dicarboxamide], the “D-Dopachrome Tautomerase at 100 μM (% of control)” value at D-dopachrome tautomerase is on record as 69.9% of control. Further, the “Mushroom Tyrosinase at 100 μM (% of control)” value in the assay with mushroom tyrosinase [1] is listed as 98.6% of control.
For `CC(C)(C)NC(=O)C(c1ccc(F)cc1)N(C(=O)c1snc(C(N)=O)c1N)c1ccccc1` (stereo not drawn) [N5-((tert-butylcarbamoyl)(4-fluorophenyl)methyl)-4-amino-N5-phenylisothiazole-3,5-dicarboxamide], in that order: 52.3% of control and 101.9% of control.
For `CCCC(C(=O)NC(C)(C)C)N(Cc1ccccc1Cl)C(=O)c1snc(C(N)=O)c1N` (stereo not drawn) [N-5-(1-(tert-butylcarbamoyl)butyl)-N5-(2-chlorobenzyl)-4-aminoisothiazole-3,5-dicarboxamide], the “D-Dopachrome Tautomerase at 100 μM (% of control)” value at D-dopachrome tautomerase was 64.3% of control. Besides, the “Mushroom Tyrosinase at 100 μM (% of control)” value with mushroom tyrosinase [1] is listed as 102.5% of control.
Take `CNC(=O)c1ccccc1NC(=O)c1c(O)nc2c(c1O)CCCC2` [N-(2-(methylcarbamoyl)phenyl)-5,6,7,8-tetrahydro-2,4-dihydroxyquinoline-3-carboxamide]: the “D-Dopachrome Tautomerase at 100 μM (% of control)” value on D-dopachrome tautomerase is recorded as 65.3% of control. In addition, the “Mushroom Tyrosinase at 100 μM (% of control)” value with mushroom tyrosinase [1] is listed as 100.0% of control.
With `O=C(O[C@@H]1Cc2c(O)cc(O)cc2O[C@@H]1c1cc(O)c(=O)c2c(O)c(O)cc([C@H]3Oc4cc(O)cc(O)c4C[C@H]3OC(=O)c3cc(O)c(O)c(O)c3)c2c1)c1cc(O)c(O)c(O)c1` [Theaflavin Digallate], the “Reduction in Melanin” value in assay [3] worked out at 26.6%.
The term inhibition denotes the drop in the measured response relative to a control, in per cent. `CCCCC/C=C\C/C=C\C/C=C\C/C=C\CCCC(=O)O` [arachidonic acid, reference compound]: at D-dopachrome tautomerase (75 μM final concentration, read-out: inhibition of DDT (positive control)), the inhibition at 75 µM is around 50%.
Take sodium isostearoyl lactylate: in assay [3], the “Reduction in Melanin” value is 6.2%. On D-dopachrome tautomerase, this molecule had an IC50 of 14.6 µM.
